Test system: cholesterol absorption
Assay: Cholesterol Absorption Assay in Mice
Format: in vivo, C57BL/6 male mice
Details: at the highest dose tested; oral dosing 0.12-10 mg/kg, [3H]-cholesterol counts in liver and plasma 5 h later
Procedure: Compounds of this invention were determined to inhibit cholesterol absorption employing the Cholesterol Absorption Assay in Mice, below. This assay involves comparing a test compound to ezetimibe with respect to their ability to inhibit cholesterol absorption in mice.
Cholesterol Absorption Assay in Mice:
C57BL/6 male mice (n=6/group), aged 10-14 weeks, were dosed orally with 0.2 ml 0.25% methyl cellulose solution with or without test compound or ezetimibe (0.12-10 mg/kg). Thirty minutes later all of the mice were dosed orally with 0.2 ml […]™ containing 2 μCi [^3H]-cholesterol per mouse. Five hours later, the animals were euthanized, and liver and blood were collected. Cholesterol counts in liver and plasma were determined, and percent inhibition of cholesterol absorption was calculated.

O=C1[C@H](CC[C@H](O)c2ccc(F)cc2)[C@@H](c2ccc(O)cc2)N1c1ccc(F)cc1 [ezetimibe]
inhibition of cholesterol absorption: > 90%
